Numbered stars: 1 amine (or outer) side, 2 acyl side, 3 side chain; on linkers, the order of the positions; unused ones are H or OH. Bridge positions count the residues as written; N and C are the ends. Square brackets hold non-standard residues; d marks the D form. Peptide text beside a SMILES is read from it. * marks the point of attachment. Ala(piperidin-4-yl) = O=C([C@H](CC1CCN([*:3])CC1)N[*:1])[*:2]; DOTA = O=C(O)CN1CCN(CC(=O)O)CCN(CC(=O)*)CCN(CC(=O)O)CC1; Lys(Me3) = C[N+](C)(C)CCCC[C@H](N)C(=O)O; 1Nal = N[C@@H](Cc1cccc2ccccc12)C(=O)O; 2Nal = N[C@@H](Cc1ccc2ccccc2c1)C(=O)O; NMetBuAla = CN[C@@H](CC(C)(C)C)C(=O)O; Phe(2-Me) = Cc1ccccc1C[C@H](N)C(=O)O; tBuAla = CC(C)(C)C[C@H](N)C(=O)O; NMeD = CN[C@@H](CC(=O)O)C(=O)O; AllylGly = C=CC[C@H](N)C(=O)O; αMeP = C[C@@]1(C(=O)O)CCCN1; NMeS = CN[C@@H](CO)C(=O)O; Nva = CCC[C@H](N)C(=O)O; Dap = NC[C@H](N)C(=O)O; Ahx = NCCCCCC(=O)O
The compounds below were run against T1, human DLL3 (Homo sapiens, UniProt Q9NYJ7) (assay: Affinity determination by Surface Plasmon Resonance (SPR), Biacore, 1:1 binding model). Details: biotinylated human DLL3 on streptavidin chip, 25° C.; NB = nonbinding.
T1 construct: biotin (biotinylated)
T1 sequence (Q9NYJ7 27-618): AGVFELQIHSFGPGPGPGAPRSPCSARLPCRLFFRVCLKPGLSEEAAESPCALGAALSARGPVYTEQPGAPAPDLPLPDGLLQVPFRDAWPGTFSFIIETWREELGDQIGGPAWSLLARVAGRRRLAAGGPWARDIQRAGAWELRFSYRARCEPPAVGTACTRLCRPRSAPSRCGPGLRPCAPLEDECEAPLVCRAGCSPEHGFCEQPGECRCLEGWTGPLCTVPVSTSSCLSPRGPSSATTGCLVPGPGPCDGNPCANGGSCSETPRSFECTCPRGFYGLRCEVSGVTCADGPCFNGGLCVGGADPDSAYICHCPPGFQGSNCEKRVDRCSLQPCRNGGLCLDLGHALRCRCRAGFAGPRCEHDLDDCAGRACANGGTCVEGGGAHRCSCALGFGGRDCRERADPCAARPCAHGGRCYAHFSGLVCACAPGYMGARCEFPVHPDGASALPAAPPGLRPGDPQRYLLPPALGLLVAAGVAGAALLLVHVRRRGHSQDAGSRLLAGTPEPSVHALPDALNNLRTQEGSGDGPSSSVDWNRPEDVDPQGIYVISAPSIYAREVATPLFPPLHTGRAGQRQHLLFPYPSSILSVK
Outline: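 SPR with biotinylated human DLL3 captured on a streptavidin chip, with a reference surface subtracted. Samples were injected at several concentrations at 100 μL/min in phosphate buffer with 137 mM NaCl, 2.7 mM KCl, 0.05% P20 and 2% DMSO. Kinetic and affinity constants came from a 1:1 binding fit.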
CC(=O)N[C@H](C)C(=O)N(C)[C@@H](CO)C(=O)N[C@@H](CC(=O)O)C(=O)N[C@H]1CSSC[C@@H](C(=O)N2CCC[C@@]2(C)C(=O)N[C@@H](Cc2ccccc2)C(=O)N[C@@H](CC(=O)O)C(=O)N[C@H](CCCCNC(=O)CN2CCN(CC(=O)O)CCN(CC(=O)O)CCN(CC(=O)O)CC2)C(N)=O)NC(=O)[C@H](CC(N)=O)NC(=O)[C@H](Cc2ccc3ccccc3c2)NC(=O)[C@H](CCC(N)=O)NC(=O)[C@H](CC(C)(C)C)NC(=O)[C@H](Cc2cccc3ccccc23)NC1=O [compound 169, Ac-(D-Ala)-(NMe-Ser)-D-C(3)-(1Nal)-(t-Bu-Ala)-Q-(2Nal)-N-C(3)-(aMe-P)-F-D-[D-Lys(DOTA)]-NH2] (Ac-[dA][NMeS]DC[1Nal][tBuAla]Q[2Nal]NC[αMeP]FD[dK](DOTA)-NH2; disulfide 4-10) gave a Kd of 0.057 nM. For CC(=O)N[C@H](C)C(=O)N[C@@H](CO)C(=O)N[C@@H](CC(=O)O)C(=O)N[C@H]1CCC(=O)NC[C@@H](C(=O)N2CCC[C@@]2(C)C(=O)N[C@@H](Cc2ccccc2C)C(=O)N[C@@H](CC(=O)O)C(=O)N[C@H](CCCCNC(=O)CN2CCN(CC(=O)O)CCN(CC(=O)O)CCN(CC(=O)O)CC2)C(N)=O)NC(=O)[C@H](CC(N)=O)NC(=O)[C@H](Cc2ccc3ccccc3c2)NC(=O)[C@H](CCC(N)=O)NC(=O)[C@H](CC(C)(C)C)NC(=O)[C@H](Cc2cccc3ccccc23)NC1=O [Cpd #160, Ac-(D-Ala)-S-D-Glu(2)-(1Nal)-(t-Bu-Ala)-Q-(2Nal)-N-Dap(2)-(aMe-P)-(2Me-F)-D-D-Lys(DOTA)-CONH2] (Ac-[dA]SDE[1Nal][tBuAla]Q[2Nal]N[Dap][αMeP][Phe(2-Me)]D[dK](DOTA)-NH2; lactam 4-10), the Kd was greater than 300 nM. For CSCC[C@H](NC(C)=O)C(=O)N[C@@H](CO)C(=O)N[C@@H](CC(=O)O)C(=O)N[C@H]1CSSC[C@@H](C(=O)N[C@H](C)C(=O)N[C@@H](Cc2ccccc2)C(=O)N[C@@H](CC(=O)O)C(N)=O)NC(=O)[C@H](CC(N)=O)NC(=O)[C@H](Cc2c[nH]c3ccccc23)NC(=O)[C@H](CCC(N)=O)NC(=O)[C@H](CC(C)C)NC(=O)[C@H](Cc2c[nH]c3ccccc23)NC1=O [compound 16, Ac-M-S-D-C(3)-W-L-Q-W-N-C(3)-(D-Ala)-F-D-CONH2] (Ac-MSDCWLQWNC[dA]FD-NH2; disulfide 4-10), the Kd was greater than 100 nM. In the case of CC(C)(C)C[C@@H]1NC(=O)[C@H](Cc2cccc3ccccc23)NC(=O)[C@@H](NC(=O)[C@H](CC(=O)O)NC(=O)[C@H](CO)NC(=O)CCCCCNC(=O)CN2CCN(CC(=O)O)CCN(CC(=O)O)CCN(CC(=O)O)CC2)CSSC[C@@H](C(=O)N2CCC[C@@]2(C)C(=O)N[C@@H](Cc2ccccc2)C(=O)N[C@@H](CC(=O)O)C(=O)O)NC(=O)[C@H](CC(N)=O)NC(=O)[C@H](Cc2ccc3ccccc3c2)NC(=O)[C@H](CCC(N)=O)NC1=O [compound 156, DOTA-Ahx-S-D-C(3)-(1Nal)-(t-Bu-Ala)-Q-(2Nal)-N-C(3)-(aMe-P)-F -D-COOH] ({DOTA-Ahx}-SDC[1Nal][tBuAla]Q[2Nal]NC[αMeP]FD-OH; disulfide 3-9), the Kd is reported as 0.11 nM. For CCC[C@H](NC(C)=O)C(=O)N[C@@H](CO)C(=O)N[C@@H](CC(=O)O)C(=O)N[C@H]1CSSC[C@@H](C(=O)N2CCC[C@H]2C(=O)N[C@@H](Cc2ccccc2)C(=O)N[C@@H](CC(=O)O)C(=O)N[C@H](CCCCNC(=O)CN2CCN(CC(=O)O)CCN(CC(=O)O)CCN(CC(=O)O)CC2)C(N)=O)NC(=O)[C@H](CC(N)=O)NC(=O)[C@H](Cc2c[nH]c3ccccc23)NC(=O)[C@H](CCC(N)=O)NC(=O)[C@H](CC(C)C)NC(=O)[C@H](Cc2c[nH]c3ccccc23)NC1=O [compound 32, Ac-Nva-S-D-C(3)-W-L-Q-W-N-C(3)-P-F-D-D-Lys(DOTA)-CONH2] (Ac-[Nva]SDCWLQWNCPFD[dK](DOTA)-NH2; disulfide 4-10), the Kd was 28 nM. CC(=O)N[C@H](C)C(=O)N[C@@H](CO)C(=O)N[C@@H](CC(=O)O)C(=O)N[C@H]1CSSC[C@@H](C(=O)N2CCC[C@@]2(C)C(=O)N[C@@H](Cc2ccccc2)C(=O)N(C)[C@@H](CC(=O)O)C(=O)N[C@H](CCCCNC(=O)CN2CCN(CC(=O)O)CCN(CC(=O)O)CCN(CC(=O)O)CC2)C(=O)O)NC(=O)[C@H](CC(N)=O)NC(=O)[C@H](Cc2ccc3ccccc3c2)NC(=O)[C@H](CCC(N)=O)NC(=O)[C@H](CC(C)(C)C)NC(=O)[C@H](Cc2cccc3ccccc23)NC1=O [compound 149, Ac-(D-Ala)-S-D-C(3)-(1Nal)-(t-Bu-Ala)-Q-(2Nal)-N-C(3)-(aMe-P)-F-(NMe-D)-D-Lys(DOTA)-CONH2] (Ac-[dA]SDC[1Nal][tBuAla]Q[2Nal]NC[αMeP]F[NMeD][dK](DOTA)-OH; disulfide 4-10) gave a Kd greater than 30 nM. Compound CC(=O)N[C@@H](CCCC[N+](C)(C)C)C(=O)N[C@@H](CO)C(=O)N[C@@H](CC(=O)O)C(=O)N[C@H]1CSSC[C@@H](C(=O)N2CCC[C@H]2C(=O)N[C@@H](Cc2ccccc2)C(=O)N[C@@H](CC(=O)O)C(=O)N[C@H](CCCCNC(=O)CN2CCN(CC(=O)O)CCN(CC(=O)O)CCN(CC(=O)O)CC2)C(N)=O)NC(=O)[C@H](CC(N)=O)NC(=O)[C@H](Cc2c[nH]c3ccccc23)NC(=O)[C@H](CCC(N)=O)NC(=O)[C@H](CC(C)C)NC(=O)[C@H](Cc2c[nH]c3ccccc23)NC1=O [compound 85, Ac-Lys(Me)3-S-D-C(3)-W-L-Q-W-N-C(3)-P-F-D-D-Lys(DOTA)-CONH2] (Ac-[Lys(Me3)]SDCWLQWNCPFD[dK](DOTA)-NH2; disulfide 4-10) has a Kd of 14 nM. CC(=O)N[C@@H](CO)C(=O)N[C@@H](CC(=O)O)C(=O)N[C@H]1CSSC[C@@H](C(=O)N2CCC[C@@]2(C)C(=O)N[C@@H](Cc2ccccc2)C(=O)N[C@@H](CC(=O)O)C(=O)N[C@H](CCCCNC(=O)CN2CCN(CC(=O)O)CCN(CC(=O)O)CCN(CC(=O)O)CC2)C(N)=O)NC(=O)[C@H](CC(N)=O)NC(=O)[C@H](Cc2ccc3ccccc3c2)NC(=O)[C@H](CC2CCNCC2)NC(=O)[C@H](CC(C)(C)C)N(C)C(=O)[C@H](Cc2cccc3ccccc23)NC1=O [compound 178, Ac-S-D-C(3)-(1Nal)-(NMe-Tba)-[3-(4-piperidinyl)-Ala]-(2Nal)-N-C(3)-(aMe-P)-F -D-[D-Lys(DOTA)]-NH2] (Ac-SDC[1Nal][NMetBuAla][Ala(piperidin-4-yl)][2Nal]NC[αMeP]FD[dK](DOTA)-NH2; disulfide 3-9) gave a Kd of 2.43 nM. Work on CSCC[C@H](NC(C)=O)C(=O)N[C@@H](CO)C(=O)N[C@@H](CC(=O)O)C(=O)N[C@H]1CSSC[C@@H](C(=O)N[C@@H](C)C(=O)N[C@@H](Cc2ccccc2)C(=O)N[C@@H](CC(=O)O)C(N)=O)NC(=O)[C@H](CC(N)=O)NC(=O)[C@H](Cc2c[nH]c3ccccc23)NC(=O)[C@H](CCC(N)=O)NC(=O)[C@H](CC(C)C)NC(=O)[C@H](Cc2c[nH]c3ccccc23)NC1=O [compound 27, Ac-M-S-D-C(3)-W-L-Q-W-N-C(3)-(L-Ala)-F-D-CONH2] (Ac-MSDCWLQWNCAFD-NH2; disulfide 4-10) yielded a Kd greater than 100 nM. Compound CSCC[C@H](NC(C)=O)C(=O)N[C@@H](CO)C(=O)N[C@@H](CC(=O)O)C(=O)N[C@H]1CSSC[C@@H](C(=O)N2CCC[C@H]2C(=O)N[C@@H](Cc2ccccc2)C(=O)N[C@@H](CC(=O)O)C(N)=O)NC(=O)[C@H](CC(N)=O)NC(=O)[C@H](Cc2c[nH]c3ccccc23)NC(=O)[C@H](CCC(N)=O)NC(=O)[C@H](CC(C)C)NC(=O)[C@H](C)NC1=O [compound 22, Ac-M-S-D-C(3)-(L-Ala)-L-Q-W-N-C(3)-P-F-D-CONH2] (Ac-MSDCALQWNCPFD-NH2; disulfide 4-10) has a Kd greater than 100 nM. CC(=O)N[C@H](C)C(=O)N[C@@H](CO)C(=O)N[C@@H](CC(=O)O)C(=O)N[C@H]1Cc2cnnn2CC[C@@H](C(=O)N2CCC[C@@]2(C)C(=O)N[C@@H](Cc2ccccc2)C(=O)N[C@@H](CC(=O)O)C(=O)N[C@H](CCCCNC(=O)CN2CCN(CC(=O)O)CCN(CC(=O)O)CCN(CC(=O)O)CC2)C(N)=O)NC(=O)[C@H](CC(N)=O)NC(=O)[C@H](Cc2ccc3ccccc3c2)NC(=O)[C@H](CCC(N)=O)NC(=O)[C@H](CC(C)(C)C)NC(=O)[C@H](Cc2cccc3ccccc23)NC1=O [Cpd #164, Ac-(D-Ala)-S-D-[Pra(6)]-(1Nal)-(t-Bu-Ala)-Q-(2Nal)-N-[DabN3(6)]-(aMe-P)-F -D-D-Lys(DOTA)-CONH2] gave a Kd greater than 30 nM. CC(=O)N[C@H](C)C(=O)N[C@@H](CO)C(=O)N[C@@H](CC(=O)O)C(=O)N[C@H]1C/C=C/C[C@@H](C(=O)N2CCC[C@@]2(C)C(=O)N[C@@H](Cc2ccccc2)C(=O)N[C@@H](CC(=O)O)C(=O)N[C@H](CCCCNC(=O)CN2CCN(CC(=O)O)CCN(CC(=O)O)CCN(CC(=O)O)CC2)C(N)=O)NC(=O)[C@H](CC(N)=O)NC(=O)[C@H](Cc2ccc3ccccc3c2)NC(=O)[C@H](CCC(N)=O)NC(=O)[C@H](CC(C)(C)C)NC(=O)[C@H](Cc2cccc3ccccc23)NC1=O [compound 161, Ac-(D-Ala)-S-D-AllyG(4)-(1Nal)-(t-Bu-Ala)-Q-(2Nal)-N-AllyG(4)-(aMe-P)-F -D-D-Lys(DOTA)-CONH2] (Ac-[dA]SD[AllylGly][1Nal][tBuAla]Q[2Nal]N[AllylGly][αMeP]FD[dK](DOTA)-NH2; staple (E) 4-10) gave a Kd of 0.24 nM.

Reference: patent publication US20250186541A1, “DLL3 TARGETING PEPTIDES AND CONSTRUCTS THEREOF” (MARIANA ONCOLOGY INC., priority 2023, published 2025)
